Laboratory results: patent US20080275111A1, “Novel Use of Lignan Compounds” (priority 2005, published 2008)

Tests used:
cell line HT-22 [1] = assay: Brain cell apoptosis induced by glutamate in HT-22 (WST-1); type: cell-based; conditions: HT-22, 5 mM glutamate 24 hours, compound 1, 2, 5 and 10 μM
Experimental: A cell line HT-22 derived from the hippocampus was treated with 5 mM glutamate for 24 hours to induce apoptosis. As a control, the cell line HT-22 was not treated with glutamate. Then, the cell line HT-22 was treated with the lignan compound of the present invention at concentrations (1, 2, 5 and 10 μM) for 24 hours. The cell death was analyzed with WST-1(Roche).

iNOS = iNOS expression in LPS-activated microglia (Western blotting); type: cell-based, mouse; conditions: 1 μg/ml LPS, compound 2.5 and 10 μM, 16 or 24 hours
From the text: (§1) In Example <6-2>, it was observed that the NO production induced by LPS in the tissue-cultured microglia of mouse was inhibited by the lignan compound of the present invention. NO is produced by iNOS enzyme of which expression is induced by activation of microglia. Therefore, the correlation between the reduction of NO production and inhibition of iNOS expression was examined. Additionally, a change in the amount of a protein COX-2 participating in the production of other inflammation-mediating materials was examined. For Western blotting analysis, tissue-cultured microglia was cultured in a 60 mm cell culture dish up to a concentration of 7.5×10^5 cells/ml. After 1 day of cultivation, the activation of microglia was induced by 1 μg/ml of LPS (Sigma) treatment. Simultaneously, the microglia was also treated with 2.5 and 10 μM of the lignan compound of the present invention together with LPS, and incubated for 16 or 24 hours. The incubated cell was washed with cold PBS 2 times, and then dissolved in a cold lysis buffer (1% SDS, 1 mM Na3VO4, 10 mM NaF, 10 mM Tris-Cl, pH 7.4 containing 1× protease inhibitors cocktail). […] Then, the amount of proteins was quantified according to BCA method. […]
(§2) NaCl containing 0.1% Tween 20) 3 times. […] Again, the membrane was then washed with TBS-T solution 3 times, and each band on the membrane was analyzed using ECL system (Sigma).

COX-2 = COX-2 expression in LPS-activated microglia (Western blotting); type: cell-based, mouse; conditions: 1 μg/ml LPS, compound 2.5 and 10 μM, 16 or 24 hours
From the text: as §1, §2

cell line HT-22 [2] = assay: Reactive oxygen species production in cell line HT-22 (CM-H2DCFDA); type: cell-based; conditions: 5 μM compound, 8 hours
Experimental: A cell line HT-22 (obtained from Dr. David Schubert) derived from the hippocampus playing a part in memory of the brain was treated with 5 mM of glutamate and 5 μM of the lignan compound of the present invention simultaneously for 8 hours. As a control, the cell line HT-22 was not treated with the lignan compound of the present invention. The treated cell line HT-22 was then treated with CM-H2DCFDA (chloromethyl derivative of dichlorodihydrofluorescein diacetate, Molecular Probes) to analyze the production of reactive oxygen species.

TNF-α = TNF-α production in LPS-activated microglia (ELISA); type: cell-based, rat; conditions: 1 μg/ml LPS, compound 2.5 and 10 μM, 24 hours
From the text: When the microglia is activated by LPS, it synthesizes and secretes various pro-inflammatory cytokines such as IL-1, IL-6 and TNF-α (Chen, S. Neurobiol. Aging, 17:781-787, 1996). Therefore, in order to examine the anti-inflammatory effect of the lignan compound of the present invention, the effect of the lignan compound of the present invention on the production of IL-6 and TNF-α in the activated microglia. First, only the neocortex was isolated from the brain of 1 day-old rat. Then, a microglia-astroglia mixture was prepared according to a method known in the art (Kim, H. Y. et al., J. Immunol., 171:6072-6079, 2003). […] Then, the amount of IL-6 and TNF-α secreted into the cell cultured medium was measured with the solid-phase ELISA system (RPN2742 for IL-6, RPN2744 for TNF-α, Amersham Bioscience). For this analysis, 50 μl of the supernatant of the cultured medium of microglia and 50 μl of the standard of each material (purely isolated and quantified IL-6 or TNF-α) were added into a 96-well plate coated with an antibody specific to mouse IL-6 and TNF-α. […] Then, 100 μl of a stop solution (Amersham Bioscience) was added into each well to stop the reaction, and the absorbance of the solution in each well was measured with a microreader at 450 nm. […]

cell line HT-22 [3] = assay: Cytotoxicity in cell line HT-22; type: cell-based; conditions: HT-22, 1, 5 and 10 μM, 24 hours, stated for 10 μM
Experimental: In order to examine the cytotoxicity effect of macelignan itself, a cell line HT-22 derived from the hippocampus was treated with macelignan at concentrations (1, 5 and 10 μM) for 24 hours.

## COc1cc(C[C@H](C)[C@H](C)Cc2ccc3c(c2)OCO3)ccc1O [macelignan, (8R,8′S)-7-(3,4-methylenedioxyphenyl)-7′-(4-hydroxy-3-methoxyphenyl)-8,8′-dimethylbutane]
Cell line HT-22 [1]
  brain cell apoptosis induced by glutamate: dose-dependently inhibited
iNOS
  expression of iNOS induced by LPS: inhibited in a concentration dependent manner
COX-2
  expression of COX-2 induced by LPS: inhibited in a concentration dependent manner
Cell line HT-22 [2]; HT-22, 5 mM glutamate
  production of reactive oxygen species induced by glutamate: inhibited
Cell line HT-22 [2]; HT-22 not treated with glutamate
  production of reactive oxygen species occurred naturally in a cell: significantly inhibited
TNF-α
  production of TNF-α induced by LPS: dose-dependently inhibited
Cell line HT-22 [3]
  cytotoxicity: did not induce cytotoxicity
Cell line HT-22 [3]; listed as lignan compound of the present invention
  cytotoxicity: did not show cytotoxicity
